# In patent publication US7629364B2, “Compounds that abrogate DNA-damage-induced cell cycle G2 checkpoint and/or augment anti-cancer activity of DNA-damaging treatments” (Canbas Co., Ltd., priority 2002, dated 2009):
# Entries after “also recorded” stand apart in the source; their conditions may differ. Like-named read-outs stand apart in the source and are kept apart here.
# Tests used:
# [1] = tested on: HCT116 human colon carcinoma cells; assay: G2 checkpoint induced by various anti-cancer agents in HCT116 cells (flow cytometry); format: cell-based; conditions: co-incubation with CBDC004 2, 10 or 50 μM, 24 hrs
# Procedure: (§1) Cell culture. A human T-cell leukemia-derived cell line, Jurkat, was cultured in RPMI 1640 media (Sigma) supplemented with 10% fetal calf serum (IBL: Immuno-Biological Laboratories, Gunma, Japan) at 37° C./5% CO2. A human colon cancer-derived cell line, HCT116, was cultured in McCoy's 5A Medium Modified (Gibco BRL) and supplemented with 10% fetal calf serum at 37° C./5% CO2. Normal human peripheral blood lymphocytes were separated by Ficoll-Paque® (Pharmacia) and cultured in the presence of 0.1 μg/ml PHA and 1 μg/ml IL-2.
# (§2) Cell-cycle analysis. […] Briefly, two million cells were resuspended and incubated in 300 μl Krishan's solution (0.1% Sodium citrate, 50 μg/ml PI, 20 μg/ml RNase A and 0.5% NP-40) for 1 hr at 4° C. and analyzed by flow cytometry using a FACScan™ flow cytometer (Beckton Dickinson, Mountain View, Calif.) with the CELLQuest™ program (Beckton Dickinson).
# DNA was stained with propidium iodine, and the cell cycle status of each cell was assessed by flow cytometry.
# Jurkat cells [2] = assay: G2 checkpoint abrogation in bleomycin-treated Jurkat cells (flow cytometry of DNA content); format: cell-based, human; conditions: for abrogation of bleomycin-induced accumulation of G2/M cells (% G2/M): bleomycin 40 μg/ml plus compound 0.2-50 μg/ml
# Procedure: as §1, §2
# DNA of treated Jurkat cells was stained with propidium iodine, and the cell cycle status of each cell was assessed by flow cytometry.
# CBDC compounds 004, 402, 403, 404, 405, 406, 407, 408, 409, 410, and 411 were tested. Cells were harvested, DNA was stained with propidium iodine, and the percentage of cells in G2/M phase (% G2/M) was determined by flow cytometry.
# Activated normal T cells and leukemic T cells (Jurkat cells) were treated with agents to induce accumulation of cells at G2 or M phase, and the effect of CBDC402 on progression of cells through cell cycle checkpoints was measured. After treatments, cells were harvested, DNA was stained, and the cell cycle stage for each cell was determined by flow cytometry as described above. […] In another experiment, activated normal T cells received no treatment (control) or were treated with colchicine or a combination of […] and colchicine.
# Activated normal T cells [3] = assay: G2 checkpoint in bleomycin-treated activated normal T cells (flow cytometry); format: cell-based, human
# Procedure: as §1, §2
# (§3) Activated normal T cells and leukemic T cells (Jurkat cells) were treated with agents to induce accumulation of cells at G2 or M phase, and the effect of CBDC402 on progression of cells through cell cycle checkpoints was measured. After treatments, cells were harvested, DNA was stained, and the cell cycle stage for each cell was determined by flow cytometry as described above. […]
# [4] = tested on: HCT-116 human colon carcinoma cells; assay: Xenograft tumor growth in SCID mice; format: in vivo; conditions: HCT-116 xenograft, intraperitoneal
# Procedure: Treatment was initiated when the primary tumors reached the size of 0.1 cm^3 (7 or 8 mm, designated as Day 1).
# Anti-cancer agent CPT-11 (CAMPTOSAR®, Irinotecan, a topoisomerase inhibitor) and CBDC402 were administered by intraperitoneal injection in the following treatment regimens: […] at 20 mg/kg once a week; CBDC402 at 20 mg/kg twice a week; CBDC402 at 40 mg/kg twice a week; CBDC402 at 20 mg/kg twice and week plus CPT-11 at 20 mg/kg once a week; and CBDC402 at 40 mg/kg twice a week plus CPT-11 at 20 mg/kg once a week. DMSO was administered as a control treatment. Tumor sizes were measured using calipers three times a week, and the volume was calculated using the formula; […]=[width (mm)^2×length (mm)]/2. Mean tumor sizes for each treatment group (n=4) were plotted against the days of treatment.
# Jurkat cells [5] = assay: M phase checkpoint in colchicine-treated Jurkat cells (flow cytometry); format: cell-based, human; conditions: 24 hrs
# Procedure: as §1, §2
# Jurkat cells were treated with colchicine (5 ug/ml), and colchicine plus the compound CBDC402 in various concentrations (0.2, 0.39, 0.78, 1.56, 3.125, 6.25, 12.5, 25 and 50 ug/ml) for 24 hrs. DNA of treated Jurkat cells was stained with propidium iodine, and the cell cycle status of each cell was assessed by flow cytometry.
# Activated normal T cells [6] = assay: M phase checkpoint in colchicine-treated activated normal T cells (flow cytometry); format: cell-based, human; conditions: FIG. 10c
# Procedure: as §1, §2, §3
# MK-45 cells = assay: Colony formation analysis of MK-45 cells; format: cell-based, human; conditions: 14 days culture; for colony formation, combination with CPT-11: 10 μM CBDC compound plus 10 μg/ml CPT-11, 3 hours; for colony formation, CBDC compound alone: 10 μM, 3-hour treatment
# Procedure: MK-45 cells from a human gastric cancer derived cell line, were seeded in 6-well plates at 1000 cells/well. After the overnight culture, the cells were treated 10 μM of various CBDC compounds, 10 μg/ml CPT-11, or a combination of CBDC compounds and CPT-11 for three (3) hours. The CBDC compounds tested were: CBDC402, CBDC412, CBDC413, and CBDC418. The culture medium was changed and cells were cultured for 14 days, after which the colonies were fixed with methanol and stained with 0.1% crystal violet.
# HCT116 cells = tested on: HCT116 cells
# Procedure: The subG1 population was determined by staining HCT116 with Krishan's solution and analyzed by flow cytometer. The dead cells were identified on the basis of DNA content, and the percentage of cells in sub G1 (% subG1) was calculated.
compound,measurement,setting,value
"COc1ccc(OC(=O)c2ccc(Cl)cc2)cc1 [CBDC004, 4-Chloro-benzoic acid 4-methoxy-phenyl ester]","effect on G2/M accumulation induced by bleomycin, adriamycin, camptothecin or cisplatin",[1],reduced the number of cells at G2/M
same,abrogation of bleomycin-induced accumulation of G2/M cells (% G2/M),"Jurkat cells [2]; Jurkat cells, 24 hrs",abrogated the G2 cell cycle checkpoint in bleomycin-treated Jurkat cells in a dose-dependent manner
"Cc1ccc(OC(=O)c2ccc(Br)cc2)cc1 [CBDC402, 4-Bromo-benzoic acid p-tolyl ester]",effect on bleomycin-induced increase of cells at G2 phase,"Activated normal T cells [3]; combination of bleomycin and CBDC402, FIG. 10a",abolished the bleomycin-induced increase of activated normal T cells at G2 phase
same,"tumor growth, CBDC402 alone",[4]; 20 or 40 mg/kg twice a week (both concentrations),gave a slight reduction in tumor growth
same,"tumor growth, combination with CPT-11",[4]; CBDC402 20 or 40 mg/kg twice a week plus CPT-11 20 mg/kg once a week,significantly reduced or inhibited tumor growth
same,abrogation of colchicine-induced G2/M accumulation,Jurkat cells [5]; colchicine 5 ug/ml plus compound 0.2-50 ug/ml,did not abrogate this G2/M accumulation at any CBDC402 concentration
same,effect on colchicine-induced increase of cells at M phase,Activated normal T cells [6]; combination with colchicine,did not affect the colchicine-induced increase of activated normal T cells at M phase
same,abrogation of bleomycin-induced accumulation of G2/M cells (% G2/M),"Jurkat cells [2]; Jurkat cells, 24 hrs",abolished the bleomycin-induced accumulation of G2/M cells in a dose-dependent manner; also recorded: abrogated the G2 cell cycle checkpoint in bleomycin-treated Jurkat cells in a dose-dependent manner
same,relative G2 checkpoint abrogating activity among CBDC compounds tested (dose-response curve),"Jurkat cells [2]; Jurkat cells, bleomycin 40 ug/ml, 24 hrs, FIG. 3",showed the highest activity
same,effect on bleomycin-induced increase of cells at G2 phase,"Jurkat cells [2]; leukemic T cells (Jurkat cells), combination of bleomycin and CBDC402, FIG. 10b",abolished the large bleomycin-induced increase of leukemic T cells (Jurkat cells) at G2 phase
same,"colony formation, combination with CPT-11",MK-45 cells,almost complete suppression of colony formation
same,"colony formation, CBDC compound alone",MK-45 cells,significant suppression of colony formation
"Cc1ccc(OC(=O)c2cc(F)c(F)c(F)c2)cc1 [CBDC403, 3,4,5-Trifluoro-benzoic acid p-toly 1 ester]",abrogation of bleomycin-induced accumulation of G2/M cells (% G2/M),"Jurkat cells [2]; Jurkat cells, 24 hrs",abrogated the G2 cell cycle checkpoint in bleomycin-treated Jurkat cells in a dose-dependent manner
"CC.O=C(Oc1ccc(Br)cc1)c1ccc(F)cc1 [CBDC404, 4-Fluoro-benzoic acid 4-bromo-pheny 1 ester; compound with ethane]",abrogation of bleomycin-induced accumulation of G2/M cells (% G2/M),"Jurkat cells [2]; Jurkat cells, 24 hrs",abrogated the G2 cell cycle checkpoint in bleomycin-treated Jurkat cells in a dose-dependent manner
"CC.Cc1ccc(OC(=O)c2ccc(Cl)c(Cl)c2)cc1 [CBDC405, 3,4-Dichloro-benzoic acid p-tolyl ester; compound with ethane]",abrogation of bleomycin-induced accumulation of G2/M cells (% G2/M),"Jurkat cells [2]; Jurkat cells, 24 hrs",abrogated the G2 cell cycle checkpoint in bleomycin-treated Jurkat cells in a dose-dependent manner
"CC.Cc1ccc(OC(=O)c2ccc(Cl)cc2Cl)cc1 [CBDC406, 2,4-Dichloro-benzoic acid p-tolyl ester; compound with ethane]",abrogation of bleomycin-induced accumulation of G2/M cells (% G2/M),"Jurkat cells [2]; Jurkat cells, 24 hrs",abrogated the G2 cell cycle checkpoint in bleomycin-treated Jurkat cells in a dose-dependent manner
"CC.Cc1ccc(OC(=O)c2ccc(F)cc2)cc1 [CBDC407, 4-Fluoro-benzoic acid p-tolyl ester; compound with ethane]",abrogation of bleomycin-induced accumulation of G2/M cells (% G2/M),"Jurkat cells [2]; Jurkat cells, 24 hrs",abrogated the G2 cell cycle checkpoint in bleomycin-treated Jurkat cells in a dose-dependent manner
"CC.Cc1ccc(OC(=O)c2c(F)c(F)c(F)c(F)c2F)cc1 [CBDC408, 2,3,4,5,6-Pentafluoro-benzoic acid p-tolyl ester; compound with ethane]",abrogation of bleomycin-induced accumulation of G2/M cells (% G2/M),"Jurkat cells [2]; Jurkat cells, 24 hrs",abrogated the G2 cell cycle checkpoint in bleomycin-treated Jurkat cells in a dose-dependent manner
"CC.Cc1ccc(OC(=O)c2ccc(Cl)cc2)cc1C [CBDC409, 4-Chloro-benzoic acid 3,4-dimethyl-phenyl ester; compound with ethane]",abrogation of bleomycin-induced accumulation of G2/M cells (% G2/M),"Jurkat cells [2]; Jurkat cells, 24 hrs",abrogated the G2 cell cycle checkpoint in bleomycin-treated Jurkat cells in a dose-dependent manner
"CC.O=C(Oc1ccc(O)cc1)c1ccc(Cl)cc1 [CBDC410, 4-Chloro-benzoic acid 4-hydroxy-phenyl ester; compound with ethane]",abrogation of bleomycin-induced accumulation of G2/M cells (% G2/M),"Jurkat cells [2]; Jurkat cells, 24 hrs",abrogated the G2 cell cycle checkpoint in bleomycin-treated Jurkat cells in a dose-dependent manner
"CC.O=C(Oc1ccc(O)cc1)c1ccc(F)cc1 [CBDC411, 4-Fluoro-benzoic acid 4-hydroxy-phenyl ester; compound with ethane]",abrogation of bleomycin-induced accumulation of G2/M cells (% G2/M),"Jurkat cells [2]; Jurkat cells, 24 hrs",abrogated the G2 cell cycle checkpoint in bleomycin-treated Jurkat cells in a dose-dependent manner
"O=C(Oc1ccc(F)cc1)c1ccc(Br)cc1 [CBDC412, 4-Bromo-benzoic acid 4-fluoro-phenyl ester]","colony formation, combination with CPT-11",MK-45 cells,a slight suppression of colony formation above that seen with CPT-11 alone
same,"colony formation, CBDC compound alone",MK-45 cells,a slight suppression of colony formation
"O=C(Oc1ccc(C(F)(F)F)cc1)c1ccc(Br)cc1 [CBDC413, 4-Bromo-benzoic acid 4-trifluoromethyl-phenyl ester]","colony formation, CBDC compound alone",MK-45 cells,did not have an appreciable effect on colony formation
"Cc1ccc(OC(=O)c2ccc(Br)cc2)cn1 [CBDC418, 4-Bromo-benzoic acid 6-methyl-pyridin-3-yl ester]","colony formation, CBDC compound alone",MK-45 cells,did not have an appreciable effect on colony formation
"CCc1c2c(nc3ccc(OC(=O)N4CCC(N5CCCCC5)CC4)cc13)-c1cc3c(c(=O)n1C2)COC(=O)[C@]3(O)CC [CPT-11, Irinotecan, reference compound]","tumor growth, CPT-11 alone",[4]; 20 mg/kg once a week,reduced tumor growth
same,"colony formation, CPT-11 alone","MK-45 cells; 10 μg/ml, 3 hours",significant suppression of colony formation
"COc1cccc2c1C(=O)c1c(O)c3c(c(O)c1C2=O)C[C@@](O)(C(=O)CO)C[C@@H]3O[C@H]1C[C@H](N)[C@H](O)[C@H](C)O1 [adriamycine, adriamycin]",cytotoxic effect (% subG1) of anti-cancer agent alone,HCT116 cells,had a cytotoxic effect on HCT116 cells
"CC[C@@]1(O)C(=O)OCc2c1cc1n(c2=O)Cc2cc3ccccc3nc2-1 [canptothecine, camptothecin]",cytotoxic effect (% subG1) of anti-cancer agent alone,"HCT116 cells; HCT116 cells, without CBDC004",had a cytotoxic effect on HCT116 cells
"COc1cc2c(c(OC)c1OC)-c1ccc(OC)c(=O)cc1[C@@H](NC(C)=O)CC2 [colchicine, reference compound]",accumulation of cells in G2/M phase by agent alone,Jurkat cells [5]; colchicine 5 ug/ml,induced an accumulation of cells in G2/M phase cells
same,accumulation of cells in M phase by colchicine alone,Activated normal T cells [6],caused an accumulation of cells in M phase
bleomycin [reference compound],accumulation of cells at G2 phase by bleomycin alone,Activated normal T cells [3]; FIG. 10a,caused accumulation of a minor population of cells at G2 phase
same,accumulation of cells in G2/M phase by agent alone,"Jurkat cells [2]; Jurkat cells, bleomycin 40 μg/ml, 24 hrs",induced an accumulation of cells in cell cycle G2/M phase
same,accumulation of cells at G2 phase by bleomycin alone,"Jurkat cells [2]; leukemic T cells (Jurkat cells), FIG. 10b",caused accumulation of a major population of cells at G2 phase
